Holding throughout (format): cell-based
Experiment [1] concerns Aspergillus flavus. The experiment can be described thus: MIC, YAG medium. The note with it: 24 h at 35° C, MIC banded into grades; for MIC: Aspergillus flavus, 24 h, read-out: MIC grade, A. flavus. In a few lines:
(§1)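 Spores harvested from 5-day Sabouraud agar cultures were inoculated at 1−2×10^4 cfu/mL into YAG medium (1% glucose, 1% ammonium chloride, 0.5% yeast extract) over doubling drug dilutions spanning 50-0.05 mg/L, or 0.5-0.0005 mg/L on repeat. After 24 h at 35° C, OD485 was read. MIC is the lowest concentration inhibiting growth >70% versus drug-free control, in mg/L.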

For experiment [2], the system named is Aspergillus fumigatus AF210. The experiment can be described thus: MIC, YAG medium. The conditions noted are these: 24 h at 35° C, MIC banded into grades; for MIC: Aspergillus fumigatus, read-out: MIC grade, A. fumigatus 210. In a few lines:
as §1

The subject of experiment [3] is Aspergillus fumigatus AF293. In words: MIC, YAG medium. The conditions noted are these: 24 h at 35° C, MIC banded into grades; for MIC: Aspergillus fumigatus, read-out: MIC grade, A. fumigatus. In a few lines:
as §1

The test system of experiment [4] is Aspergillus niger. The experiment can be described thus: MIC, YAG medium. The note with it: 24 h at 35° C, MIC banded into grades; for MIC: Aspergillus niger, read-out: MIC grade, A. niger. Put shortly:
as §1

Experiment [5] concerns Aspergillus terreus AT49. In words: MIC, YAG medium. The conditions noted are these: 24 h at 35° C, MIC banded into grades; for MIC: Aspergillus terreus, read-out: MIC grade, A. terreus 49. Put shortly: as §1
The test system of experiment [6] is Aspergillus terreus AT4. The experiment can be described thus: MIC, YAG medium. The note with it: 24 h at 35° C, MIC banded into grades; for MIC: Aspergillus terreus, read-out: MIC grade, A. terreus. In a few lines:
as §1

Experiment [7] has as its system Aspergillus flavus. The experiment can be described thus: MIC, RPMI medium. The note with it: MIC banded into grades; for MIC: Aspergillus flavus, read-out: MIC grade, A. flavus. In a few lines:
(§2)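 Broth microdilution in RPMI medium with 2% glucose and 0.135 M MOPS (pH 7.0); compounds as doubling dilutions over 50-0.05 mg/L, inoculum 1−2×10^4 cfu/mL. Plates incubated 24-48 h at 35° C; OD 485 nm read, MIC being lowest concentration giving >80% growth inhibition versus drug-free control.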

Experiment [8] concerns Aspergillus fumigatus AF210. In words: MIC, RPMI medium. The conditions noted are these: for MIC: Aspergillus fumigatus, AF210, MIC banded into grades, read-out: MIC grade, A. fumigatus 210. In a few lines: as §2
Experiment [9] relates to Aspergillus fumigatus AF293. In words: MIC, RPMI medium. The conditions noted are these: for MIC: Aspergillus fumigatus, AF293, MIC banded into grades, read-out: MIC grade, A. fumigatus. In a few lines:
as §2

Experiment [10] deals with Aspergillus niger. In words: MIC, RPMI medium. The note with it: MIC banded into grades; for MIC: Aspergillus niger, read-out: MIC grade, A. niger. Put shortly:
as §2

Experiment [11] deals with Aspergillus terreus AT49. The experiment can be described thus: MIC, RPMI medium. The conditions noted are these: for MIC: Aspergillus terreus, AT49, MIC banded into grades, read-out: MIC grade, A. terreus 49. In a few lines:
as §2

Experiment [12] deals with Aspergillus terreus AT4. In words: MIC, RPMI medium. The conditions noted are these: for MIC: Aspergillus terreus, AT4, MIC banded into grades, read-out: MIC grade, A. terreus. In a few lines: as §2

≈ marks a conversion by molar mass, not a printed value.

This is an account of results in patent US8993574B2, “Pyrrole antifungal agents” (F2G Ltd, priority 2008, dated 2015).

Usually MIC stands for the lowest concentration found to suppress growth.

On to `Cc1cc(C)nc(N2CCN(c3ccc(NC(=O)C(=O)c4c(-c5ccccc5)cc(C(C)C)n4C)cc3)CC2)c1` [Example 20, N-{4-[4-(4,6-Dimethyl-pyridin-2-yl)-piperazin-1-yl]-phenyl}-2-(5-isopropyl-1-methyl-3-phenyl-1H-pyrrol-2-yl)-2-oxo-acetamide], for which the minimum inhibitory concentration (MIC) was more than 10 µg/mL in the experiment with Aspergillus flavus [1]; less than 1 µg/mL in experiment [2]; more than 10 µg/mL in [3]; more than 10 µg/mL in the experiment on Aspergillus niger [4]; less than 1 µg/mL in the experiment with Aspergillus terreus AT49 [5]; less than 1 µg/mL in the experiment on Aspergillus terreus AT4 [6]. In addition, the minimum inhibitory concentration (MIC) with Aspergillus flavus [7] was more than 10 µg/mL; in experiment [8], more than 10 µg/mL; in experiment [9] it was more than 10 µg/mL; with Aspergillus niger [10], more than 10 µg/mL; in the experiment on Aspergillus terreus AT49 [11], 1 to 10 µg/mL (≈ 1.87 to 18.7 µM); in the experiment with Aspergillus terreus AT4 [12], more than 10 µg/mL.
Take `Cc1cc(C)nc(N2CCN(c3ccc(NC(=O)C(=O)c4c(-c5ccccc5)cc(C)n4C)c(Cl)c3)CC2)c1` [Example 21, N-{2-Chloro-4-[4-(4,6-dimethyl-pyridin-2-yl)-piperazin-1-yl]-phenyl}-2-(1,5-dimethyl-3-phenyl-1H-pyrrol-2-yl)-2-oxo-acetamide]: the MIC (with Aspergillus flavus [1]; in [2]; in experiment [3]; in the experiment on Aspergillus niger [4]; with Aspergillus terreus AT49 [5]; in the experiment on Aspergillus terreus AT4 [6]) was less than 1 µg/mL each time. Besides, the MIC (with Aspergillus flavus [7]; in [8]; in [9]; in the experiment on Aspergillus niger [10]; with Aspergillus terreus AT49 [11]; with Aspergillus terreus AT4 [12]) was less than 1 µg/mL each time.
As to `Cc1cc(C)nc(N2CCN(c3ccc(NC(=O)C(=O)c4ccc(C)[nH]4)cc3)CC2)c1` [Example 4, N-{4-[4-(4,6-Dimethyl-pyridin-2-yl)-piperazin-1-yl]-phenyl}-2-(5-methyl-1H-pyrrol-2-yl)-2-oxo-acetamide], the minimum inhibitory concentration (MIC) in the experiment on Aspergillus flavus [1] was 1 to 10 µg/mL (≈ 2.4 to 24 µM); in experiment [2] it was 1 to 10 µg/mL (≈ 2.4 to 24 µM); in experiment [3] it was 1 to 10 µg/mL (≈ 2.4 to 24 µM); with Aspergillus niger [4] it was 1 to 10 µg/mL (≈ 2.4 to 24 µM); with Aspergillus terreus AT49 [5], 1 to 10 µg/mL (≈ 2.4 to 24 µM); in the experiment on Aspergillus terreus AT4 [6] it was more than 10 µg/mL. The MIC (with Aspergillus flavus [7]; in experiment [8]; in experiment [9]; in the experiment with Aspergillus niger [10]; with Aspergillus terreus AT49 [11]; in the experiment on Aspergillus terreus AT4 [12]) was more than 10 µg/mL in each case.
Regarding `COCCn1c(C)cc(-c2ccccc2)c1C(=O)C(=O)Nc1ccc(N2CCN(c3cc(C)cc(C)n3)CC2)cc1Cl` [Example 26, N-{2-Chloro-4-[4-(4,6-dimethyl-pyridin-2-yl)-piperazin-1-yl]-phenyl}-2-[1-(2-methoxy-ethyl)-5-methyl-3-phenyl-1H-pyrrol-2-yl]-2-oxo-acetamide], the “MIC grade, A. flavus” value in the experiment on Aspergillus flavus [1] is 1 (a grade of 1 represents an MIC of greater than 10 mg/L). Besides, the minimum inhibitory concentration (MIC) in experiment [2] was less than 1 µg/mL; in [3] it was less than 1 µg/mL; with Aspergillus niger [4] it was less than 1 µg/mL; in the experiment on Aspergillus terreus AT49 [5], less than 1 µg/mL; in the experiment with Aspergillus terreus AT4 [6] it was less than 1 µg/mL; in the experiment with Aspergillus flavus [7], more than 10 µg/mL. In addition, the MIC was less than 1 µg/mL in [8]; less than 1 µg/mL in [9]; less than 1 µg/mL with Aspergillus niger [10]; more than 10 µg/mL with Aspergillus terreus AT49 [11]; more than 10 µg/mL with Aspergillus terreus AT4 [12].
Regarding `Cc1cc(C)nc(N2CCN(c3ccc(NC(=O)C(=O)c4cc(-c5ccccc5)c5n4CCCCC5)cc3)CC2)c1` [41 b], the “MIC grade, A. flavus” value against Aspergillus flavus [1] and in the experiment on Aspergillus flavus [7] was 1 (a grade of 1 represents an MIC of greater than 10 mg/L) throughout. The “MIC grade, A. fumigatus 210” value in experiment [2] is on record as 2 (A grade of 2 represents an MIC of from 1 to 10 mg/L); in experiment [8] (MIC banded into grades), 1 (a grade of 1 represents an MIC of greater than 10 mg/L). For the same compound, the “MIC grade, A. fumigatus” value in experiment [3] and in experiment [9] (MIC banded into grades) was 2 (A grade of 2 represents an MIC of from 1 to 10 mg/L) throughout. For the same compound, the “MIC grade, A. niger” value against Aspergillus niger [4] and against Aspergillus niger [10] was 1 (a grade of 1 represents an MIC of greater than 10 mg/L) throughout. The “MIC grade, A. terreus 49” value in the experiment on Aspergillus terreus AT49 [5] and against Aspergillus terreus AT49 [11] (MIC banded into grades) was 1 (a grade of 1 represents an MIC of greater than 10 mg/L) in each case. Moreover, the “MIC grade, A. terreus” value in the experiment with Aspergillus terreus AT4 [6] and against Aspergillus terreus AT4 [12] (MIC banded into grades) was 1 (a grade of 1 represents an MIC of greater than 10 mg/L) in each case.
Take `COCC=CCn1c(C)cc(-c2ccccc2)c1C(=O)C(=O)Nc1ccc(N2CCN(c3cc(C)cc(C)n3)CC2)cc1` [Example 141, N-{4-[4-(4,6-Dimethyl-pyridin-2-yl)-piperazin-1-yl]-phenyl}-2-[1-(4-methoxy-but-2-enyl)-5-methyl-3-phenyl-1H-pyrrol-2-yl]-2-oxo-acetamide]: the MIC with Aspergillus flavus [1] was 1 to 10 µg/mL (≈ 1.73 to 17.3 µM); in experiment [2] it was less than 1 µg/mL; in experiment [3], less than 1 µg/mL; in the experiment on Aspergillus niger [4], 1 to 10 µg/mL (≈ 1.73 to 17.3 µM); in the experiment with Aspergillus terreus AT49 [5], 1 to 10 µg/mL (≈ 1.73 to 17.3 µM); in the experiment on Aspergillus terreus AT4 [6] it was 1 to 10 µg/mL (≈ 1.73 to 17.3 µM). For the same compound, the MIC (with Aspergillus flavus [7]; in experiment [8]; in [9]; with Aspergillus niger [10]; in the experiment on Aspergillus terreus AT49 [11]; in the experiment with Aspergillus terreus AT4 [12]) was more than 10 µg/mL each time.
Regarding `Cc1cc(C)nc(N2CCN(c3ccc(NC(=O)C(=O)c4c(-c5ccccc5)cc(C)n4CCOc4ccccc4)cc3)CC2)c1` [Example 134, N-{4-[4-(4,6-Dimethyl-pyridin-2-yl)-piperazin-1-yl]-phenyl}-2-[5-methyl-1-(2-phenoxy-ethyl)-3-phenyl-1H-pyrrol-2-yl]-2-oxo-acetamide], the MIC with Aspergillus flavus [1] is 1 to 10 µg/mL (≈ 1.63 to 16.3 µM); in [2], more than 10 µg/mL; in experiment [3], 1 to 10 µg/mL (≈ 1.63 to 16.3 µM); in the experiment on Aspergillus niger [4] it was more than 10 µg/mL; in the experiment with Aspergillus terreus AT49 [5], 1 to 10 µg/mL (≈ 1.63 to 16.3 µM); with Aspergillus terreus AT4 [6], 1 to 10 µg/mL (≈ 1.63 to 16.3 µM). The MIC (in the experiment on Aspergillus flavus [7]; in [8]; in [9]; in the experiment with Aspergillus niger [10]; in the experiment on Aspergillus terreus AT49 [11]; in the experiment with Aspergillus terreus AT4 [12]) was more than 10 µg/mL each time.
Take `COCCn1c(C)cc(-c2ccccc2)c1C(=O)C(=O)Nc1ccc(-c2ncco2)cc1` [Example 149, 2-[1-(2-Methoxy-ethyl)-5-methyl-3-phenyl-1H-pyrrol-2-yl]-N-(4-oxazol-2-yl-phenyl)-2-oxo-acetamide]: the MIC (in the experiment on Aspergillus flavus [1]; in experiment [2]; in experiment [3]; in the experiment on Aspergillus niger [4]; in the experiment with Aspergillus terreus AT49 [5]; with Aspergillus terreus AT4 [6]) was less than 1 µg/mL each time. Further, the MIC with Aspergillus flavus [7] is more than 10 µg/mL; in experiment [8], 1 to 10 µg/mL (≈ 2.33 to 23.3 µM); in [9], 1 to 10 µg/mL (≈ 2.33 to 23.3 µM); in the experiment with Aspergillus niger [10], less than 1 µg/mL; with Aspergillus terreus AT49 [11] it was 1 to 10 µg/mL (≈ 2.33 to 23.3 µM); in the experiment with Aspergillus terreus AT4 [12], 1 to 10 µg/mL (≈ 2.33 to 23.3 µM).
With `Cc1cc(-c2ccccc2)c(C(=O)C(=O)Nc2ccc(N3CCN(CC(C)C)CC3)c(F)c2)n1C` [Example 118, 2-(1,5-Dimethyl-3-phenyl-1H-pyrrol-2-yl)-N-[3-fluoro-4-(4-isobutyl-piperazin-1-yl)-phenyl]-2-oxo-acetamide], the MIC (in the experiment with Aspergillus flavus [1]; in experiment [2]; in experiment [3]; with Aspergillus niger [4]; in the experiment on Aspergillus terreus AT49 [5]; in the experiment with Aspergillus terreus AT4 [6]) was less than 1 µg/mL throughout. The minimal inhibitory concentration (MIC) (in the experiment on Aspergillus flavus [7]; in experiment [8]; in experiment [9]; with Aspergillus niger [10]; with Aspergillus terreus AT49 [11]; in the experiment on Aspergillus terreus AT4 [12]) was less than 1 µg/mL each time.
